Assay results as given in patent US5330990A, “Substituted urea compounds and their preparation and use” (Novo Nordisk A/S, priority 1989, dated 1994).
Structures can show the parent of a compound that is named as a salt.

Each compound was assayed against T1, 5-HT3 receptor (Cavia porcellus, UniProt O70212) (assay: 5HT3-antagonist activity: inhibition of 5-HT-induced contractions of isolated guinea pig ileum in the presence of methysergide). Details: not given.
T1 construct: from tissue; host or cells: guinea pig isolated ileum (terminal 15 cm)
T1 sequence (O70212 20-490): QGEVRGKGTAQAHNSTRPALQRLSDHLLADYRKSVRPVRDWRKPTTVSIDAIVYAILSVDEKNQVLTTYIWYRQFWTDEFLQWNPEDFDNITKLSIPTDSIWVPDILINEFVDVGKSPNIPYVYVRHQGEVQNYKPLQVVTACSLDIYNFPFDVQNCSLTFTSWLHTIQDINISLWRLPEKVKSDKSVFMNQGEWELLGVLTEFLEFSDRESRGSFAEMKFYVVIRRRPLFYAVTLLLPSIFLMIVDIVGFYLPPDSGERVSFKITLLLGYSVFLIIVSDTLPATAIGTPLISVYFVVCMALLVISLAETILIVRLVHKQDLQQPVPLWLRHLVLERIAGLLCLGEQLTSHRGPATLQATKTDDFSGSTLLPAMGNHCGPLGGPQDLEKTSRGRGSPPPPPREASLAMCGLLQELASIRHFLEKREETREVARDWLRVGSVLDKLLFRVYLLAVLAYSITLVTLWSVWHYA
Assay type: cell-based
Protocol: Compounds of formula (I) were tested for their 5HT3 -antagonist activity using the following method:
5-HT produces contractions of the guinea pig ileum via 2 different receptors. 1) direct contractions via 5-HT2 receptors on the muscle, 2) indirect contractions via 5-HT3 recaptots on intrinsic gut neurones, producing acetylcholine release. By administering 5-HT to lengths of ileum in the presence of methysergide (to block 5-HT2 receptors) you can assay 5-HT3 receptor activity.
Guinea pigs were killed by means of cervical dislocation the terminal 15 cm of ileum removed, and 1.5-2.0 cm lengths prepared and mounted in 10 ml organ baths containing calcium deficient tyrodes of the following composition (mM) NaCl (136.9); KCl (2.68); CaCl2 (0.9); MgCl2 (1.05); NaCO3 (11.9); NaH2 PO4 (0.42); glucose (5.55) and containing methysergide (10^-6 M) maintained at 37° C. and gassed with 95% O2 and 5% CO2. The mechanical activity of the muscle was measured by a HSE 351 isometric transducer connected via a HSE bridge amplifier to a potentiometric pen recorder. Resting tension was 1 g and the tissue left to equilibrate for 1 hour.
First a dose response curve is obtained to acetylcholine on each tissue. Then one tissue is incubated for 20 min with tyrode and three with tyrode plus the putative 5-HT3 antagonist. After this incubation dose response curves to 5-HT are constructed to 5-HT in all 4 tissues (one control 3+test drug). Contact time for 5-HT 30 sec.
The maximum response to acetylcholine for each tissue is measured and the responses to 5-HT calculated as percentage maximum of the acetylcholine (Ach) maximum response in that tissue. The peak of the 5-HT response is measured.
For each tissue the concentration of 5-HT giving 100% of the maximum acetylcholine response (measured at 30 sac) is quoted.
The effect of a drug is quantified as the ratio of the concentration of 5-HT producing a 100% maximal Ach response in the presence and absence of the antagonist (dose ratio). The figure quoted is the concentration of the antagonist giving a dose ratio of 2, (A2).

Row | Structure (SMILES) | Kb [nM]
1 | O=C(Nc1ccccc1-c1nc(C2CC2)no1)NC1CN2CCC1CC2 (stereo not drawn) [Example 10, N-(2-(3-Cyclopropyl-1,2,4-oxadiazol-5-yl)-phenyl)-N^1-(3-quinuclidinyl)urea] | 283

Same assay, conditions: guinea pig ileum; methysergide 10^-6 M; 37° C.; 20 min incubation with antagonist; 5-HT contact time 30 sec; dose ratio at 100% maximal Ach response; read-out: A2 (concentration of the antagonist giving a dose ratio of 2) (converted)

Row | Structure (SMILES) | Kb [nM]
2 | CN1[C@@H]2CC[C@H]1C[C@@H](NC(=O)Nc1ccccc1-c1nc(C3CC3)no1)C2 [Example 5, N-(2-(3-Cyclopropyl-1,2,4-oxadiazol-5-yl)phenyl)-N^1-(endo-8-methyl-8-azabicyclo[3.2.1]oct-3-yl)urea HCl] | 43.5
3 | Cc1noc(-c2ccccc2NC(=O)N[C@H]2C[C@H]3CC[C@@H](C2)N3C)n1 [Example 6, N-(Endo-8-methyl-8-azabicyclo[3.2.1]oct-3-yl) -N^1-(2-(3-methyl-1,2,4-oxadiazol-5-yl)-phenyl)urea, HCl] | 293
4 | CCCCc1noc(-c2ccccc2NC(=O)N[C@H]2C[C@H]3CC[C@@H](C2)N3C)n1 [Example 7, N-(2-(3-Butyl-1,2,4-oxadiazol-5-yl)phenyl)-N^1-(endo-8-methyl-8-azabicyclo[3.2.1]oct-3-yl)urea, (CO2 H)2] | 13
5 | CN1[C@@H]2CCC[C@H]1C[C@@H](NC(=O)Nc1ccccc1-c1nc(C3CC3)no1)C2 [Example 8, N-(2-(3-Cyclopropyl-1,2,4-oxadiazol-5-yl)-phenyl)-N^1-(endo-9-methyl-9-azabicyclo[3.3.1]non-3-yl)urea, HCl] | 3.41
6 | CN1[C@@H]2CCC[C@H]1C[C@@H](NC(=O)Nc1ccccc1-c1nc(-c3ccccc3)no1)C2 [Example 11, N-(Endo-9-methyl-9-azabicyclo[3.3.1]non-3-yl)-N ^1-(2-(3-phenyl-1,2,4-oxadiazol-5-yl)phenyl)urea] | 24
7 | CN1[C@@H]2CC[C@H]1C[C@@H](NC(=O)Nc1ccccc1C=NOCC1CC1)C2 [Example 15, N-(Endo-8-methyl-8-azabicyclo[3.2.1]oct-3-yl)-N^1-(2-(N-cyclo-propylmethoxyiminomethyl)phenyl)urea, HCl] | 5.05
8 | CCON=Cc1ccccc1NC(=O)N[C@H]1C[C@H]2CC[C@@H](C1)N2C [Example 16, N-(Endo-8-methyl-8-azabicyclo[3.2.1]oct-3-yl)-N^1-(2-(N-ethoxyiminomethyl)phenyl)urea, HCl] | 36.3
9 | CON=Cc1ccccc1NC(=O)N[C@H]1C[C@H]2CCC[C@@H](C1)N2C [Example 18, N-(2-(N-Methoxyiminomethyl)phenyl)-N^1-(endo-9-methyl-9-azabicyclo[3.3.1]non-3-yl)urea] | 36.3
